Laboratory results reported in patent US20030228675A1, “ATM related kinase ATX, nucleic acids encoding same and methods of use” (priority 2002, published 2003).

Experiments:
Assay type in all cases: cell-based, human
[1] = system: NMD of the Ter-containing β-globin mRNA; assay: NMD assay, β-globin Ter mRNA by RT-PCR; conditions: U2OS, reduced endogenous ATX expression
Experimental: To prepare recombinant HA-tagged ATX and ATM proteins, HEK 293T cells were plated onto 60-mm dishes (9×10^5 cells per dish), and were transfected with 5 μg pcDNA3.1 (empty vector), HA-ATXWT, HA-ATXKI, or HA-ATMWT plasmid DNAS. Transfections were performed with the Fugene 6 transfection reagent (Roche), according to the manufacturer's instructions. For NMD assays (see Example 9, below), U2OS cells were seeded onto 100 mm dishes (1×10^6 cells per dish). After 20 h, cells were transfected with 1.5 μg of pmCMV-Gl test plasmid, either Norm or 39Ter (Ishigaki et al., 2001); 1.5 μg of phCMV-MUP reference plasmid (Ishigaki et al., Cell 106:607-617 (2001)); and 7 μg of empty plasmid (pcDNA 3.1), plasmids encoding HA-ATMWT, HA-ATMKI, HA-ATXWT or HA-ATXKI. For antisense transfection experiments, U2OS cells were seeded onto 60 mm dishes (1×10^5 cells per dish) in complete medium supplemented with penicillin/streptomycin. […]
Total or nuclear RNA was isolated using Trizol (Invitrogen) or the NE-PER kit (Pierce), respectively. The extent of NMD was determined by using RT-PCR to quantitate the levels of Globin and MUP mRNA as described previously (Ishigaki et al., Cell 83: 1-4 (2001)), except that 21 cycles of PCR were used when analyzing the effects of ATX-specific S and AS oligonucleotides.

p53 = assay: Stress-induced p53 Ser-15 phosphorylation and p53 accumulation by immunoblotting
Experimental: To prepare recombinant HA-tagged ATX and ATM proteins, HEK 293T cells were plated onto 60-mm dishes (9×10^5 cells per dish), and were transfected with 5 μg pcDNA3.1 (empty vector), HA-ATXWT, HA-ATXKI, or HA-ATMWT plasmid DNAS. Transfections were performed with the Fugene 6 transfection reagent (Roche), according to the manufacturer's instructions. For NMD assays (see Example 9, below), U2OS cells were seeded onto 100 mm dishes (1×10^6 cells per dish). After 20 h, cells were transfected with 1.5 μg of pmCMV-Gl test plasmid, either Norm or 39Ter (Ishigaki et al., 2001); 1.5 μg of phCMV-MUP reference plasmid (Ishigaki et al., Cell 106:607-617 (2001)); and 7 μg of empty plasmid (pcDNA 3.1), plasmids encoding HA-ATMWT, HA-ATMKI, HA-ATXWT or HA-ATXKI. For antisense transfection experiments, U2OS cells were seeded onto 60 mm dishes (1×10^5 cells per dish) in complete medium supplemented with penicillin/streptomycin. After 30 h, cells were either mock transfected or transfected with sense (S) or antisense (AS) phosphorothioate oligonucleotides (Genset Oligos, La Jolla, Calif.). The S oligonucleotide spans ATX nucleotides 210-229 (5′-[…]-3′), and the AS oligonucleotide is complementary to this sequence (5′-[…]-3′). The cells were transfected with oligonucleotides at final concentrations of 8 μg/ml, with Fugene 6:DNA ratio of 1.6:1. Forty-eight hours after transfection, dishes were exposed to IR, UV-B, or 5-FU, and then harvested for immunoblotting, cell-cycle distribution, or cell survival assays. To examine ATX protein levels in oligonucleotide-treated cells, whole cell extracts were resolved by SDS-PAGE and immunoblotted with α-ATX Ab-1. When oligonucleotide-transfected cells were used for NMD assays, U2OS cells were seeded in culture dishes as described above. The cells were transfected using the Fugene reagent, with 1.5 μg of pmCMV-Gl test plasmid, 0.7 μg of phCMV-MUP reference plasmid, and 24 μg of S or AS oligonucleotide.
A major mediator of stress-induced signaling in mammalian cells is the tumor suppressor protein, p53 (Ko and Prives, Genes and Development 10:1054-1072, (1996); Ryan et al., Curr. Opin. Cell Biol. 13:332-337 (2001)). ATX phosphorylates p53 on Ser-15 (FIG. 1C), a site implicated in the regulation of p53 stability and transcriptional activity (Dumaz and Meek, Curr. Opin. Cell Biol. 13:225-231 (1999); Zhang and Xiong, Science 292:1910-1915 (2001)). Therefore, the possibility that these two proteins are functionally linked during cellular stress responses was investigated. U2OS cells were transiently transfected with a HA-ATXWT or HA-ATXKI expression plasmid, together with a GFP-encoding plasmid to allow for FACS-based enrichment of the transfected cells. The GFP+ cells were then examined for IR-induced stabilization of p53, as well as for specific phosphorylation of this protein on Ser-15. […] In contrast, overexpression of ATXWT enhanced both of these responses in cells exposed to IR.
The recognition of UV light-induced DNA damage occurs primarily during S phase, when pyrimidine dimers and other bulky lesions interfere with replication fork progression (Friedberg, DNA Repair and Mutagenesis (Washington, D.C., ASM Press) (1995); Lindahl and Wood, Cell 103:1121-1131 (1999)).
In order to further define the potential linkage between DNA replicational stress and ATX, the response of AS-treated cells to 5-fluorouracil (5-FU), an S-phase specific cytotoxic agent was examined (Danenberg et al., Seminars in Oncology 26:621-631 (1999); Grem, Investigational New Drugs 18:299-313 (2000)).
Changes in phosphorylation at Ser-15 are typically accompanied by alterations in the expression of the p53 protein, which complicates the interpretation of results obtained by immunoblotting of whole cell extracts with phospho-Ser-15-specific antibodies. […]

hChk2 = assay: IR-dependent phosphorylation of hChk2; conditions: U2OS
Description: Recent findings point toward ATM as a critical upstream regulator of the activity of the checkpoint kinase, hChk2, in IR-damaged cells (Ahn et al., Cancer Res. 60:5934-5936 (2000); Melchionna et al., Nat. Cell Biol. 2:762-765 (2000)). To determine whether ATX was also involved in hChk2 activation, the effect of AS oligonucleotide treatment on the IR-dependent phosphorylation of hChk2 was examined. […] Moreover, the differential effects of AS treatment on p53 expression versus hChk2 activation argue against the possibility that AS exposure leads to nonspecific inhibition of checkpoint signaling responses to IR-induced DNA damage.

U2OS cells = assay: Cell-cycle distribution by flow cytometry
Experimental: Since p53 plays a central role in activation of the G1 checkpoint, and influences S, G2, and M checkpoints as well (Giaccia and Kastan, Genes & Development 12:2973-2983 (1998); Ko and Prives, supra, 1996), a functional deficiency of ATX might alter the cell-cycle arrest responses to IR and other genotoxic agents. To test this possibility, U2OS cells were pre-treated with S or AS oligonucleotides, exposed to IR, and cell-cycle distributions at 24 h post-irradiation were determined.
The G2 checkpoint inhibitor was added to the culture medium at 8 h prior to harvest for determination of cell-cycle distributions (FIG. 3E, left panel), and immunoblotting for ATX expression (right panel).

**Q.** “5′-AGCAAGCTCCCTCCTGTCTC-3′ (all phosphorothioate, sugars by position and methylation of C not given here) [AS oligonucleotide, ATX antisense phosphorothioate oligonucleotide complementary to ATX nucleotides 210-229]” was tested. Which NMD activity [1] did it give?
**A.** Its NMD activity is “ATX expression is required for maximal NMD activity”.

**Q.** What about the “stoichiometric increase in Ser-15 phosphorylation (phospho-Ser-15 to total p53) triggered by UV” value (p53; U2OS pretreated with proteasome inhibitor LLnV, UV) of the same substance?
**A.** The value was “effectively blocked”.

**Q.** And the “level of p53 induction by 5-FU” value (p53; U2OS, 5-FU exposure, versus S-treated cells)?
**A.** Its value is “identical to that observed in their S-treated counterparts”.

**Q.** What about the “phosphorylation and stabilization of p53 induced by IR exposure” value (p53; U2OS, IR) of the same substance?
**A.** The value was “reduced both the phosphorylation and stabilization of p53”.

**Q.** What about the “Ser-15 phosphorylation and p53 protein accumulation in UV-damaged cells” value (p53; U2OS, UV) of the same substance?
**A.** The value was “severely impaired both Ser-15 phosphorylation and p53 protein accumulation”.

**Q.** And the “IR-dependent phosphorylation of hChk2” value (hChk2)?
**A.** Its value is “retained the ability to phosphorylate hChk2”.

**Q.** What about the “cell-cycle distribution after IR exposure” value (U2OS cells; 24 h post-irradiation) of the same substance?
**A.** The value was “arrested primarily in G2/M phase”.

**Q.** What about the “subpopulation with <2N DNA content (apoptotic cells)” value (U2OS cells; no IR) of the same substance?
**A.** Its value is “increased subpopulation”.

**Q.** What about the “cell-cycle distribution in the absence of IR” value (U2OS cells; no IR, versus S oligonucleotide) of the same substance?
**A.** The value was “reduction in the percentage of G1 phase cells, and a concomitant accumulation of G2/M phase cells”.
